# Laboratory results published in US20240165056A1, “USE OF TAMOXIFEN AND RELATED COMPOUNDS TO REDUCE BREAST IMPLANT CAPSULE FORMATION AND CAPSULAR CONTRACTURE” (Ohio State Innovation Foundation, priority 2021, published 2024).
# Key:
# Format in all cases: in vivo, mice
# [1] = tested on: Alpha smooth muscle actin (αSMA); experiment: Immunohistochemistry of implant capsule: αSMA myofibroblasts; conditions: 75 mg/kg i.p. daily; explant at 2 weeks
# Experimental: (§1) Eight-week-old C57BL/6 or Beige (C57BL/6J-Lyst^bg-J/J) female mice (Jackson Labs, Bar Harbor, ME, USA) (N=10/group) were treated with daily tamoxifen or vehicle injections into the intraperitoneal cavity 1 week before surgery. Tamoxifen injections consisted of 75 mg/kg tamoxifen citrate (Sigma, St. Louis MO, USA) in peanut oil (Sigma, St Louis MO, USA) with 10% ethanol (Sigma, St. Louis MO, USA) to promote dissolution of tamoxifen, while control injections consisted of only peanut oil and ethanol. Daily injections continued until the day of explantation, two weeks after implantation.
# (§2) Mice were anesthetized with a standard ketamine/xylazine cocktail. […]
# (§3) Explanted silicone pieces and surrounding capsules were fixed overnight in formaldehyde at 4° C. and transitioned to 70% ethanol. […] Primary antibody binding was detected by subsequent incubation with species appropriate biotinylated IgG (Vector Laboratories, CA, USA), followed by streptavidin-horse radish peroxidase (Vector Laboratories, CA, USA) and chromogenic development with 3,3-diaminobenzidine (Vector Laboratories, CA, USA). […] Slides were imaged on a Zeiss Axio Observer Z1 inverted microscope (Zeiss, Germany) and quantified using ImageJ (NIH, USA). […]
# (§4) All statistical analysis was performed in Prism 8.0 (GraphPad, San Diego, CA, USA). Data was evaluated for outliers using the Grubb's test. […]
# CD31 = experiment: Immunohistochemistry of implant capsule: CD31 neovascularization; conditions: 75 mg/kg i.p. daily; explant at 2 weeks
# Experimental: as §1, §2, §3, §4
# Ki-67 = experiment: Immunohistochemistry of implant capsule: Ki-67 cellular proliferation; conditions: 75 mg/kg i.p. daily; explant at 2 weeks
# Experimental: as §1, §2, §3, §4
# [2] = tested on: estrogen receptor β (ER-β); experiment: Immunohistochemistry of implant capsule: ER-β; conditions: 75 mg/kg i.p. daily; explant at 2 weeks
# Experimental: as §1, §2, §3, §4
# [3] = tested on: fibrous capsule around silicone implants; experiment: Silicone breast implant capsule formation in mouse model (H&E, Picro-Sirius Red histology)
# Experimental: as §1
# (§5) Mice were anesthetized with a standard ketamine/xylazine cocktail. Fur was clipped and skin was prepped with betadine followed by alcohol pads. Silicone prostheses were implanted in the submammary plane, bilaterally, giving a total of 20 implants per experimental group (FIG. 1B). Skin incisions were re-approximated with 6-0 nylon suture (FIG. 1C).
# (§6) After 2 weeks, mice were euthanized and the silicone prostheses were removed en bloc with all surrounding tissue, including the overlying skin for orientation (FIG. 1D). […] These samples were excluded from further analysis owing to the potential confounding nature of bacterial contamination on capsule formation.
# Explanted silicone pieces and surrounding capsules were fixed overnight in formaldehyde at 4° C. and transitioned to 70% ethanol. Samples were then paraffin embedded and sectioned at 4 μm. Samples were stained with H&E (FIG. 1E) or Picro-Sirius Red. Immunohistochemistry sections were deparaffinized, rehydrated and blocked for endogenous peroxidase activity (3% H2O2 in H2O) and nonspecific background staining (3% normal goat serum in Background Sniper, BioCare Medical, CA, USA). Antigen retrieval was performed with citrate buffer (pH 6.0) or Tris-EDTA (pH 9.0) in a pressure cooker for 10 minutes and slides were incubated for 30 minutes at room temperature with primary antibodies. Primary antibodies (all from Abcam, Cambridge, UK) included α-SMA (ab124964), CD31 (ab28364), CD68 (ab125212), iNOS (ab15323), CD163 (ab182422), Ki67 (ab15580), ER-α (ab271827), and ER-β (ab3576). Primary antibody binding was detected by subsequent incubation with species appropriate biotinylated IgG (Vector Laboratories, CA, USA), followed by streptavidin-horse radish peroxidase (Vector Laboratories, CA, USA) and chromogenic development with 3,3-diaminobenzidine (Vector Laboratories, CA, USA). Tissue sections were counterstained with Gill's hematoxylin (Vector Laboratories, CA, USA), slides were dehydrated and a cover slip was placed. Slides were imaged on a Zeiss Axio Observer Z1 inverted microscope (Zeiss, Germany) and quantified using ImageJ (NIH, USA).
# Histology was quantified from H&E slides within the fibrous capsule on the side oriented with overlying skin to maintain consistency and remove potential variability by dissection at explantation.
# (§7) All statistical analysis was performed in Prism 8.0 (GraphPad, San Diego, CA, USA). Data was evaluated for outliers using the Grubb's test. Control and tamoxifen-treated groups were compared with unpaired t-tests, except in cases where the equal variance assumption was violated; when the nonparametric Mann-Whitney test was utilized. A p-value of 0.05 was considered significant.
# [4] = Mouse body weight during tamoxifen treatment in silicone implant model; conditions: 75 mg/kg tamoxifen citrate i.p. daily
# Experimental: as §1, §5, §6, §7
# CD163 = experiment: Immunohistochemistry of implant capsule: CD163 anti-inflammatory macrophages; conditions: 75 mg/kg i.p. daily; explant at 2 weeks
# Experimental: as §1, §2, §3, §4
# iNOS = experiment: Immunohistochemistry of implant capsule: iNOS pro-inflammatory macrophages; conditions: 75 mg/kg i.p. daily; explant at 2 weeks
# Experimental: as §1, §2, §3, §4
# CD68 = experiment: Immunohistochemistry of implant capsule: CD68 macrophage infiltration; conditions: 75 mg/kg i.p. daily; explant at 2 weeks
# Experimental: as §1, §2, §3, §4
# [5] = tested on: Estrogen receptor α (ER-α); experiment: Immunohistochemistry of implant capsule: ER-α; conditions: 75 mg/kg i.p. daily; explant at 2 weeks
# Experimental: as §1, §2, §3, §4
# [6] = Picro-Sirius Red, 75 mg/kg i.p. daily, explant at 2 weeks
smiles,measurement,setting,value
CC/C(=C(\c1ccccc1)c1ccc(OCCN(C)C)cc1)c1ccccc1 [tamoxifen],linear density of αSMA+ cells,[1],295±121 cells/mm
same,percentage of total cells αSMA+,[1],47.9±9.5%
same,CD31+ vessels per mm^2,CD31,106.3±51.8 vessels/mm^2
same,total CD31+ vessels,CD31,15.9±9.7 vessels/mm
same,Ki-67+ cells/mm,Ki-67,324±125 cells/mm
same,cellular fraction of Ki-67+ cells,Ki-67,62.4±16.9%
same,"ER-β expression, cellular fraction",[2],36.8±7.5%
same,ER-β total cells/mm,[2],106.2±69.2 cells/mm
same,cellularity of the capsules,"[3]; 75 mg/kg i.p. daily, explant at 2 weeks",3624±608 cells/mm^2
same,capsule thickness,"[3]; 75 mg/kg tamoxifen citrate i.p. daily, explant 2 weeks after implantation",132±49 μm
same,area percent of collagen,[3]; [6],36.2±3.1%
same,total collagen surrounding the implants,[3]; [6],43598±10044 μm^2
same,reduction in capsule thickness,"[3]; tamoxifen-treated vs control, explant at 2 weeks",59%
same,body weight at the date of surgery,[4]; one week after start of injections,16.2±1.6 gram body weight
same,body weight at the start of the injection period,"[4]; start of injections, 1 week before surgery",17.6±1.2 gram body weight
same,body weight at the two-week explant date,[4]; two weeks after implantation,16.6±1.0 gram body weight
same,cellular fraction of CD163,CD163,29.1±8.4%
same,total number of cells with positivity for CD163,CD163,94.1±45.9 cells/mm
same,cellular fraction of iNOS,iNOS,60.6±12.6%
same,total number of cells with positivity for iNOS,iNOS,290.6±104.2 cells/mm
same,cellular fraction of CD68,CD68,55.9±16.0%
same,linear density of CD68+ cells,CD68,303.3±136.5 cells/mm
same,ER-α expression as a fraction of total cells,[5],31.0±6.3%
same,ER-α total cells/mm of capsular tissue,[5],107.0±39.8 cells/mm
